Reference: patent US11931362B2 (CIPLA LIMITED, priority 2019, dated 2024)

System: Escherichia coli, Staphylococcus aureus, Pseudomonas aeruginosa, Candida albicans, and Aspergillus niger
Experiment: Preservative efficacy test, overall outcome
Type: cell-based
Settings: bacteria and fungi
Description: Preservative effectiveness tests are compendial-guided assays that determine efficacy for preservative systems in pharmaceutical preparations. In such assays, test formulations are challenged with standardized suspensions of indicator aerobic bacteria and molds and microorganism survival is monitored over a 28-day period. The efficacy of the preservative against various microorganisms was measured using a USP/EP preservative efficacy test. These tests were conducted on Memmert equipment. In the procedure, formulations were tested against the following microorganisms: Escherichia coli, Staphylococcus aureus, Pseudomonas aeruginosa, Candida albicans, and Aspergillus niger. The bacterial strains and fungi were inoculated at a total concentration of […]. Samples were incubated for 7 days at room temperature (25° C.), and the total bacterial and fungal counts were measured using a colony counter. The log reduction (LR) values for the bacterial and fungal counts were calculated as log (initial count/final count).

For `OCc1ccccc1` [benzyl alcohol], the “preservative efficacy test outcome” value was “effective”.
